Activity calls are given as the source filed them. No cut-off for these calls is given here.
Columns and labels:
Lymphocyte = assay: Induction of DNA double strand breaks in nonproliferating human lymphocytes at 100 nM by alkaline comet assay; assay type: functional, cell-based
HeLa [1] = assay: Reversal of induction of DNA double strand breaks in human HeLa cells at >50 nM in presence of aphidicolin after 1 hr by neutral comet assay; assay type: functional, cell-based
CHO-AA8 [2] = assay: Induction of DNA double strand breaks in Chinese hamster AA8 cells assessed as phosphorylated histone H2AX formation after 1 hr by immunostaining; assay type: functional, cell-based; conditions: Cricetulus griseus
[3] = Induction of chromosome damage in BRCA2 deficient Chinese hamster V-C8 cells assessed as number of radials per 100 metaphases at 10 nM for 1 hr followed by post incubation in drug-free media for 24 hrs; assay type: functional, Cricetulus griseus
V79 [4] = assay: Induction of chromosome damage in Chinese hamster V79 cells assessed as number of damaged chromosomes per 100 metaphases at 100 nM for 1 hr followed by post incubation in drug-free media for 24 hrs; assay type: functional, Cricetulus griseus
[5] = Cytotoxicity in homologous recombination repair RAD51C gene deficient Chinese hamster CL-V4B cells assessed as cell viability by MTT assay relative to wild type cells; assay type: functional, Cricetulus griseus
CCRF-CEM [6] = assay: Induction of DNA double strand breaks in human CEM cells at 100 nM by alkaline comet assay; assay type: functional, cell-based
HeLa [7] = assay: Reduction of DNA synthesis in human HeLa cells at 30 nM after 1 hrs […]; assay type: functional; parameters: scale not given: the % may be the effect or the level left
[8] = Induction of chromosome damage in BRCA2 deficient Chinese hamster V-C8 cells assessed as number of damaged chromosomes per 100 metaphases at 1 nM for 1 hr followed by post incubation in drug-free media for 24 hrs; assay type: functional, Cricetulus griseus
V79 [9] = assay: Induction of chromosome damage in Chinese hamster V79 cells assessed as number of radials per 100 metaphases at 10 nM for 1 hr followed by post incubation in drug-free media for 24 hrs; assay type: functional, Cricetulus griseus
[10] = Effect on cell cycle progression in Chinese hamster homologous recombination repair XRCC3 gene deficient irs1SF cells assessed as increase in accumulation at G2/M phase at 6 nM for 1 hr followed by post incubation in drug-free media for 24 hrs relative to control; assay type: functional, Cricetulus griseus
CHO-AA8 [11] = assay: Effect on cell cycle progression in Chinese hamster AA8 cells assessed as increase in accumulation at G2/M phase at 6 nM for 1 hr followed by post incubation in drug-free media for 6 hrs relative to control; assay type: functional, cell-based; conditions: Cricetulus griseus
[12] = Induction of chromosome damage in BRCA2 deficient Chinese hamster V-C8 cells assessed as number of radials per 100 metaphases at 2 nM for 1 hr followed by post incubation in drug-free media for 24 hrs; assay type: cell-based, Cricetulus griseus; conditions: v-c8, 1 h, 0.002 µM
[13] = Cytotoxicity in homologous recombination repair XRCC2 gene deficient Chinese hamster irs1 cells assessed as cell viability by MTT assay relative to wild type cells; assay type: functional, Cricetulus griseus
HeLa [14] = assay: Induction of DNA double strand breaks in human S-phase synchronized HeLa cells by alkaline comet assay; assay type: functional, cell-based
[15] = Induction of chromosome damage in BRCA2 deficient Chinese hamster V-C8 cells assessed as number of radials per 100 metaphases at 5 nM for 1 hr followed by post incubation in drug-free media for 24 hrs; assay type: functional, Cricetulus griseus
V79 [16] = assay: Induction of chromosome damage in Chinese hamster V79 cells assessed as number of radials per 100 metaphases at 50 nM for 1 hr followed by post incubation in drug-free media for 24 hrs; assay type: functional, Cricetulus griseus
CHO-AA8 [17] = assay: Effect on cell cycle progression in Chinese hamster AA8 cells assessed as accumulation at G2 phase at 140 nM; assay type: functional, cell-based; conditions: Cricetulus griseus
V79 [18] = assay: Induction of chromosome damage in Chinese hamster V79 cells assessed as number of damaged chromosomes per 100 metaphases at 50 nM for 1 hr followed by post incubation in drug-free media for 24 hrs; assay type: functional, Cricetulus griseus
V79 [19] = assay: Induction of chromosome damage in Chinese hamster V79 cells assessed as number of damaged chromosomes per 100 metaphases at 10 nM for 1 hr followed by post incubation in drug-free media for 24 hrs; assay type: functional, Cricetulus griseus
[20] = Effect on cell cycle distribution in Chinese hamster homologous recombination repair XRCC3 gene deficient irs1SF cells after 1 hr followed by post incubation in drug-free media; assay type: functional, Cricetulus griseus
[21] = Induction of chromosome damage in BRCA2 deficient Chinese hamster V-C8 cells assessed as number of damaged chromosomes per 100 metaphases at 2 nM for 1 hr followed by post incubation in drug-free media for 24 hrs; assay type: functional, Cricetulus griseus
[22] = Induction of chromosome damage in BRCA2 deficient Chinese hamster V-C8 cells assessed as number of radials per 100 metaphases at 1 nM for 1 hr followed by post incubation in drug-free media for 24 hrs; assay type: functional, Cricetulus griseus
HeLa [23] = assay: Induction of DNA double strand breaks in human HeLa cells assessed as phosphorylated histone H2AX formation after 1 hr by immunostaining; assay type: functional, cell-based
[24] = Induction of DNA double strand breaks in Chinese hamster homologous recombination repair XRCC3 gene deficient irs1SF cells at 100 nM after 1 hr by comet assay; assay type: functional, Cricetulus griseus
CHO-AA8 [25] = assay: Induction of DNA double strand breaks in Chinese hamster AA8 cells at 100 nM after 1 hr by comet assay; assay type: functional, Cricetulus griseus
CHO-AA8 [26] = assay: Effect on cell cycle progression in Chinese hamster AA8 cells assessed as accumulation at S phase at 140 nM; assay type: functional, cell-based; conditions: Cricetulus griseus
[27] = Induction of chromosome damage in BRCA2 deficient Chinese hamster V-C8 cells assessed as number of damaged chromosomes per 100 metaphases at 100 nM for 1 hr followed by post incubation in drug-free media for 24 hrs; assay type: functional, Cricetulus griseus
CHO-AA8 [28] = assay: Effect on cell cycle distribution in Chinese hamster AA8 cells assessed as isotoxic dose after 1 hr; assay type: functional, Cricetulus griseus
[29] = Cytotoxicity in homologous recombination repair BRCA2 gene deficient Chinese hamster V-C8 cells assessed as cell viability by MTT assay relative to wild type cells; assay type: functional, Cricetulus griseus
CCRF-CEM [30] = assay: Induction of DNA double strand breaks in human CEM cells assessed as phosphorylated histone H2AX formation after 1 hr by immunostaining; assay type: functional, cell-based
HeLa [31] = assay: Reduction of cellular viability in human HeLa cells at 20 nM after 1 hr by MTT assay; assay type: functional
V79 [32] = assay: Induction of chromosome damage in Chinese hamster V79 cells assessed as number of radials per 100 metaphases at 100 nM for 1 hr followed by post incubation in drug-free media for 24 hrs; assay type: functional, Cricetulus griseus
[33] = Effect on cell cycle progression in Chinese hamster homologous recombination repair XRCC3 gene deficient irs1SF cells assessed as increase in accumulation at S phase at 6 nM for 1 hr followed by post incubation in drug-free media for 6 hrs relative to control; assay type: functional, Cricetulus griseus
HeLa [34] = assay: Induction of DNA double strand breaks in human HeLa cells after 1 hr by neutral comet assay; assay type: functional, cell-based
[35] = Cytotoxicity in homologous recombination repair XRCC3 gene deficient Chinese hamster irs1SF cells assessed as cell viability by MTT assay relative to wild type cells; assay type: functional, Cricetulus griseus
[36] = Induction of chromosome damage in BRCA2 deficient Chinese hamster V-C8 cells assessed as number of damaged chromosomes per 100 metaphases at 5 nM for 1 hr followed by post incubation in drug-free media for 24 hrs; assay type: functional, Cricetulus griseus

COc1cc2c(cc1O)CCN[C@]21CS[C@@H]2c3c(OC(C)=O)c(C)c4c(c3[C@H](COC1=O)N1[C@@H]2[C@H]2c3c(cc(C)c(OC)c3O)C[C@@H]([C@@H]1O)N2C)OCO4 [TRABECTEDIN]
Activity (Lymphocyte): inactive | Activity (HeLa [1]): Active | Activity (CHO-AA8 [2]): Active | Activity [3]: 3 | Activity (V79 [4]): 57 | Fold change [5]: 8 | Activity (CCRF-CEM [6]): Active | Activity (HeLa [7]): 50% | Activity [8]: 14 | Activity (V79 [9]): 0 | Activity [10]: 35% | Activity (CHO-AA8 [11]): inactive | Activity [12]: 1 | Fold change [13]: 8 | Activity (HeLa [14]): Toxic | Activity [15]: 2 | Activity (V79 [16]): 27 | Activity (CHO-AA8 [17]): Active | Activity (V79 [18]): 50 | Activity (V79 [19]): 1 | IC50 [20]: 6 nM | Activity [21]: 42 | Activity [22]: 1 | Activity (HeLa [23]): Active | Activity [24]: 19% | Activity (CHO-AA8 [25]): 20% | Activity (CHO-AA8 [26]): Active | Activity [27]: 100 | Activity (CHO-AA8 [28]): 140 nM | Fold change [29]: 18 | Activity (CCRF-CEM [30]): Active | Activity (HeLa [31]): 50% | Activity (V79 [32]): 24 | Activity [33]: 65% | Activity (HeLa [34]): Dose-dependent effect | Fold change [35]: 23 | Activity [36]: 90

From ChEMBL document CHEMBL1147059, “Replication and homologous recombination repair regulate DNA double-strand break formation by the antitumor alkylator ecteinascidin 743” (Proc Natl Acad Sci U S A, 2007)
